Results reported in US20250002854A1, “METHODS OF GENERATING POPULATIONS OF TUMOUR-INFILTRATING T CELLS” (LYTIX BIOPHARMA AS, priority 2016, published 2025).
Square brackets hold non-standard residues; d marks the D form. Ends that are not written are not given here. Dip = N[C@H](C(=O)O)C(c1ccccc1)c1ccccc1

Tests used:
B16F1 melanoma cells = test: Kill kinetics (MTT); type: cell-based, murine
Procedure: Cells were seeded as previously described for MTT assay, and incubated with LTX-401 solutions for 5, 15, 30, 60, 90, 120 and 240 minutes. Cells were washed once with 100 μl of serum-free RPMI-1640 after incubation, and further incubated in a 10% MTT solution (diluted in a serum-free RPMI-1640) for an additional 2 h.

B16F1 cells [1] = test: Release of cytochrome c (ELISA); type: cell-based, murine; conditions: 108 μM
Procedure: B16F1 cells were plated onto 96-well culture plates as previously described above for the MTT assay. Cells were treated with 108 μM (4×IC50^4h) for designated time points (30, 60, 90, 120 and 240 minutes), while control cells were preserved in serum-free RPMI-1640 only until the experimental endpoint. Supernatants were collected and diluted 1/5 in a serum-free RPMI 1640 before being evaluated using a Rat/Mouse Cytochrome c Quantikine ELISA kit (R&D Systems, USA), according to the instructions of the manufacturer. The concentration of cytochrome c was calculated by interpolation values on the provided standard curve.

B16F1 cells [2] = test: Release of HMGB1 (Western blot); type: cell-based, murine; conditions: 108 μM
Procedure: B16F1 cells were seeded at a density of 2×10^5 cells/well in 6-well plates in a complete medium, and allowed to adhere overnight. Cells were treated with 108 μM of LTX-401 (4×IC50^4h), and incubated at 37° C. (>95% humidity and 5% CO2) for different time points (10, 30, 60, 90 and 120 minutes). Serum-free RPMI 1640 was used as a negative control, and supernatants (S) were collected and centrifuged at 1,400 g for 5 min before being up-concentrated using Amicon Ultra-0.5 Centrifugal Filter units with Ultracel-50 membrane (Milipore, Norway). Cell lysates (L) were harvested after washing with 2 mL of serum-free RPMI-1640 and subjected to a lysis buffer (mastermix) containing 2×NuPAGE LDS Sample buffer (Invitrogen, Norway), a 1×NuPAGE Sample Reducing Agent (Invitrogen, Norway) and 50% sterile H20. Both supernatants and lysates were boiled at 70° C. for 10 min and resolved on NuPAGE Novex 4-12% Bis-Tris Gels (Millipore, Norway) before being electrotransferred to a polyvindiline difluoride (PVDF) membrane (Millipore, Norway). […]

[3] = previous studies by Ausbaucher et al.; cited from earlier work
MCA205 sarcoma = conditions: mouse, in vivo
Procedure: Mice were subcutaneously injected into the right flank with 1×10^6 MCA205 cells. Tumour cell lines were inoculated into C57BL/6 mice. Tumour surfaces (longest dimension×perpendicular dimension) were routinely monitored by caliper. When tumours reached a size of 20-25 mm^2 (day 0), mice were administered intratumourally with three consecutive daily injections of 300 μg LTX-315. In T-cell depletion experiments (FIG. 24), anti-CD4 and anti-CD8 monoclonal antibodies (mAbs) (GK1.5 and 53-6.72, respectively; 200 μg per mouse) or their isotype controls (LTF-2 and 2A3, respectively) were injected intraperitoneally 3 and 4 days before the first LTX-315 injection and continued every other 7 days. All mAbs for in vivo use were obtained from BioXcell (West Lebanon, NH, USA), using the recommended isotype control mAbs.
Tumours and spleens were harvested 7 days after the first injection of LTX-315. Excised tumours were cut into small pieces and digested in RPMI-1640 medium containing Liberase at 25 μg/ml (Roche, Boulogne-Billancourt, France) and DNase1 at 150 UI/ml (Roche) for 30 min at 37° C. The mixture was subsequently passaged through a 100 μm cell strainer. […] All cells were analysed on a CyAn ADP (Beckman Coulter, Marseille, France) flow cytometer with FlowJo (Tree Star, Ashland, OR) software.

[4] = tested on: tumour tissue sections from patients; test: Clinical histology, CD3/CD8 immunostaining of patient tumours; type: in vivo, human
Procedure: Formalin-fixed and paraffin-embedded tumour tissue sections from patients were deparaffinized in xylene and graded alcohols, hydrated and washed in PBS. After antigen retrieval in sodium citrate buffer (pH 6) in a microwave oven, the endogenous peroxidase was blocked by 0.3% H2O2 for 15 min. Sections were incubated overnight at 4° C. with primary antibody; rabbit polyclonal anti-CD3 (clone A0452 Dako) or mouse monoclonal anti-CD8 (clone OX8, ab33786, Abcam). As a secondary antibody, the anti-rabbit-horseradish peroxidase (HRP) SuperPicTure Polymer detection kit (Invitrogen) or Envision system HRP-anti-mouse (Dako) were used. A matched isotype control was used as a control for nonspecific background staining

| Compound | cell survival (B16F1 melanoma cells; 54 μM, after two hours) | time until cellular survival reduced to a minimum (B16F1 melanoma cells; 108 μM) | kill ratio (B16F1 melanoma cells; 108 μM, after 15 min) | cell death (B16F1 melanoma cells; 108 μM, two hours after start of treatment) | time at which cytochrome c is present in the supernatant (B16F1 cells [1]) | cytochrome c in supernatant, peak (B16F1 cells [1]; experimental endpoint) | time at which HMGB1 translocation was absolute (B16F1 cells [2]) | time at which release of HMGB1 occurs (B16F1 cells [2]) | mitochondrial membrane potential (TMRE) [3] | cytotoxic CD4+ TILs in tumour beds (IFNγ+, IL-17+, IFNγ+ IL-17+) (MCA205 sarcoma) | cytotoxic CD8+ TILs in tumour beds (IFNγ+, TNFα+, IFNγ+ TNFα+) (MCA205 sarcoma) | infiltration of CD3+ and CD8+ cells ([4]; breast carcinoma patient) | infiltration of CD3+ and CD8+ cells ([4]; desmoid tumour patient) | infiltration of CD8+ cells ([4]; malignant melanoma patient) | infiltration of CD3+ and CD8+ cells ([4]; metastatic melanoma patient) | infiltration of CD3+ and CD8+ cells ([4]; myo-epithelioma patient) |
| --- | --- | --- | --- | --- | --- | --- | --- | --- | --- | --- | --- | --- | --- | --- | --- | --- |
| Cl.Cl.NCCNC(=O)C(CN)(CCCc1ccccc1)CCCc1ccccc1 [LTX-401] | 50% | 90 to 120 min | 50% | ~100% | 120 min | approximately 40 ng/ml | 90 min | 30 min | did not compromise the mitochondrial membrane potential | – | – | – | – | – | – | – |
| K-K-W-W-K-K-W-Dip-K-NH2 (KKWWKKW[Dip]K-NH2) [LTX-315] | – | – | – | – | – | – | – | – | – | markedly increased | markedly increased | infiltration of CD3^+ positive cells | infiltration of CD3^+ positive cells | infiltration of CD8^+ positive cells | infiltration of CD3^+ positive cells | infiltration of CD3^+ positive cells |
